According to article PMC6269846, “Pyrrolizidine Alkaloids and Fatty Acids from the Endemic Plant Species Rindera umbellata and the Effect of Lindelofine-N-oxide on Tubulin Polymerization” (Molecules, 2013):

What was measured:
[1] = system: T1, tubulin; assay: turbidimetric tubulin polymerization assay (absorbance at […] nm); assay type: biochemical, Bos taurus
T1 construct: tubulin isolated from bovine brain (α/β heterodimer); with α-tubulin/β-tubulin heterodimer

[2] = system: T1, tubulin; assay: turbidimetric tubulin polymerization assay (absorbance at […] nm), positive control; assay type: biochemical, Bos taurus

SMILES	IC50 [1] [µM]	IC50 [2] [nM]
CC(C)[C@@](O)(C(=O)OC[C@@H]1CC[N+]2([O-])CCC[C@H]12)[C@@H](C)O (stereo partly drawn) [compound 7, (2S,3R)-((1R,7aR)-hexahydro-1H-pyrrolizin-1-yl)methyl2,3-dihydroxy-2-isopropylbutanoate-N-oxide]	91	–
CC(=O)O[C@H]1C(=O)[C@@]2(C)[C@H]([C@H](OC(=O)c3ccccc3)[C@]3(O)C[C@H](OC(=O)[C@H](O)[C@@H](NC(=O)c4ccccc4)c4ccccc4)C(C)=C1C3(C)C)[C@]1(OC(C)=O)CO[C@@H]1C[C@@H]2O [paclitaxel]	–	2400
